Columns and labels:
Assay type in all cases: functional, cell-based
NCI-H292 = test: Cytotoxicity evaluated against H292 tumor cell lines; Significant activity; settings: Homo sapiens
WI-38 = test: Cytotoxicity evaluated against WI38 tumor cell lines; Significant activity; settings: Homo sapiens
NIH3T3 = test: Cytotoxicity evaluated against NIH3T3 tumor cell lines; Significant activity; settings: Mus musculus
HL-60 = test: Cytotoxicity evaluated against HL-60 tumor cell lines; Significant activity; settings: Homo sapiens
CCRF-CEM = test: Cytotoxicity evaluated against CEM tumor cell lines; Significant activity; settings: Homo sapiens
B16 = test: Cytotoxicity was evaluated against B16 tumor cell lines; Significant activity; settings: Mus musculus
MCF7 = test: Cytotoxicity evaluated against MCF-7 tumor cell lines; Significant activity; settings: Homo sapiens
MOLT-4 = test: Cytotoxicity was evaluated against Molt-4 tumor cell lines; settings: Homo sapiens
NCI-H596 = test: Cytotoxicity evaluated against H596 tumor cell lines; Significant activity; settings: Homo sapiens
L1210 = test: Cytotoxicity evaluated against L1210 tumor cell lines; Significant activity; settings: Mus musculus
Jurkat = test: In vitro test for antitumor activity against human Jurkat cell line using a formazan dye (MTT) conversion assay.
K562 = test: Cytotoxicity evaluated against K562 tumor cell lines; Significant activity; settings: Homo sapiens
A549 = test: Cytotoxicity evaluated against A549 tumor cell lines; significant activity; settings: Homo sapiens
WIL2 = test: Cytotoxicity evaluated against WIL2 tumor cell lines; Significant activity; settings: Homo sapiens

Compound	Cytotoxicity (NCI-H292)	Cytotoxicity (WI-38)	Cytotoxicity (NIH3T3)	Cytotoxicity (HL-60)	Cytotoxicity (CCRF-CEM)	Cytotoxicity (B16)	Cytotoxicity (MCF7)	Cytotoxicity (MOLT-4)	Cytotoxicity (NCI-H596)	Cytotoxicity (L1210)	IC50 (Jurkat) [nM]	Cytotoxicity (K562)	Cytotoxicity (A549)	Cytotoxicity (WIL2)
COc1cc2c(cc1O)C/C(=C\c1cc(C)c(O)c(C)c1)C2=O	Significant activity	Significant activity	Significant activity	Significant activity	Significant activity	Significant activity	Significant activity	Significant activity	Significant activity	Significant activity	530	Significant activity	Significant activity	Significant activity
COc1cc2c(c(N)c1OC)C(=O)/C(=C/c1cc(C)c(N)c(C)c1)C2	Significant activity	Significant activity	Significant activity	Significant activity	Significant activity	Significant activity	Significant activity	Significant activity	Significant activity	Significant activity	23.5	Significant activity	Significant activity	Significant activity
COc1cc2c(cc1OC)C(=O)/C(=C/c1cc([N+](=O)[O-])ccc1O)C2	Significant activity	Significant activity	Significant activity	Significant activity	Significant activity	Significant activity	Significant activity	Significant activity	Significant activity	Significant activity	14500	Significant activity	Significant activity	Significant activity
COc1cc2c(c(OC)c1OC)C(=O)/C(=C/c1cc(C)c(O)c(C)c1)C2	Significant activity	Significant activity	Significant activity	Significant activity	Significant activity	Significant activity	Significant activity	Significant activity	Significant activity	Significant activity	125	Significant activity	Significant activity	Significant activity
COc1cc2c(cc1OC)C(=O)/C(=C/c1cc(C)ccc1C)CC2	Significant activity	Significant activity	Significant activity	Significant activity	Significant activity	Significant activity	Significant activity	Significant activity	Significant activity	Significant activity	6000	Significant activity	Significant activity	Significant activity
COc1ccc(OC)c(/C=C2\CCc3cc(OC)c(OC)cc3C2=O)c1	Significant activity	Significant activity	Significant activity	Significant activity	Significant activity	Significant activity	Significant activity	Significant activity	Significant activity	Significant activity	11000	Significant activity	Significant activity	Significant activity
CCOC(=O)COc1c(C)cc(/C=C2\Cc3cc(OC)c(OC)cc3C2=O)cc1C	Significant activity	Significant activity	Significant activity	Significant activity	Significant activity	Significant activity	Significant activity	Significant activity	Significant activity	Significant activity	2200	Significant activity	Significant activity	Significant activity

Reference: ChEMBL document CHEMBL1133412, “Rational design, synthesis and structure-activity relationships of antitumor (E)-2-benzylidene-1-tetralones and (E)-2-benzylidene-1-indanones” (Bioorg Med Chem Lett, 2000)
